Where two headings read alike, the source gives them in different places.
Tests used:
K. pneumoniae CQ1947 = assay: Broth microdilution MIC, glycosides with or without polymyxins; format: cell-based, Klebsiella pneumoniae; conditions: for MIC: Klebsiella pneumoniae, CQ1947
HEK-293T cells = assay: Resazurin cell viability assay (cytotoxicity); format: cell-based, human; conditions: 72 h, read-out: IC50
In short: (§1)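 HEK-293T and Caco-2 cells (1.5 × 10^4/well, RPMI 1640 with 10% FBS) exposed 72 h at 37 °C to glycosides at final 100 to 10 µM, alone or with PMB or colistin at final 0.5, 0.25 or 0.125 µg/mL; max DMSO 0.33%. Resazurin added 4 h, read 570/600 nm; IC50 from dose-response fits, mean ± SD of three replicates.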

Caco-2 cells = assay: Resazurin cell viability assay (cytotoxicity); format: cell-based, human; conditions: Homo sapiens, Caco-2, 72 h, read-out: IC50
In short: as §1

E. cloacae CQ1941 = assay: Broth microdilution MIC/MBC, glycosides with or without polymyxins; format: cell-based; conditions: for MIC: Enterobacter cloacae, CQ1941
P. aeruginosa CQ4924 = assay: Broth microdilution MIC, glycosides with or without polymyxins; format: cell-based, Pseudomonas aeruginosa; conditions: for MIC: Pseudomonas aeruginosa, CQ4924
K. pneumoniae CQ4921 = assay: Broth microdilution MIC/MBC, glycosides with or without polymyxins; format: cell-based, Klebsiella pneumoniae; conditions: for MIC: Klebsiella pneumoniae, CQ4921
[1] = alone, read-out: MICA (MIC of each compound individually)
[2] = combination with the lowest FICI
[3] = compound + colistin, lowest FICI

## CCCCCCCCCCCCO[C@@H]1O[C@H](C)C[C@H](O)[C@H]1O [Compound 2, dodecyl 4,6-dideoxy-α/β-D-xylo-hexopyranoside]
K. pneumoniae CQ1947; Cpd conc. 0.4 μg/mL, strain F
  MIC of colistin in combination with the compound: > 0.5 µg/mL
K. pneumoniae CQ1947; Cpd conc. 0.8 μg/mL, strain F
  MIC of colistin in combination with the compound: 0.5 µg/mL
K. pneumoniae CQ1947; Cpd conc. 3.125 μg/mL, strain F
  MIC of colistin in combination with the compound: 0.5 µg/mL
K. pneumoniae CQ1947; Cpd conc. 6.25 μg/mL, strain F
  MIC of colistin in combination with the compound: 0.5 µg/mL
K. pneumoniae CQ1947; Cpd conc. 12.5 μg/mL, strain F
  MIC of colistin in combination with the compound: 0.5 µg/mL
K. pneumoniae CQ1947; Cpd conc. […], strain F
  MIC of colistin in combination with the compound: 0.5 µg/mL
K. pneumoniae CQ1947; agent alone, no adjuvant (polymyxin conc. 0), strain F, read-out: MIC
  MIC: > 100 µg/mL
K. pneumoniae CQ1947; [1]
  MIC: > 100 µg/mL
K. pneumoniae CQ1947; PMB 0.25 μg/mL, strain F
  MIC of compound in combination with PMB: > 100 µg/mL
K. pneumoniae CQ1947; PMB 0.5 μg/mL, strain F
  MIC of compound in combination with PMB: 0.8 µg/mL
K. pneumoniae CQ1947; colistin 0.06 μg/mL, strain F
  MIC of compound in combination with colistin: > 100 µg/mL
K. pneumoniae CQ1947; colistin 0.125 μg/mL, strain F
  MIC of compound in combination with colistin: > 100 µg/mL
K. pneumoniae CQ1947; colistin 0.25 μg/mL, strain F
  MIC of compound in combination with colistin: > 100 µg/mL
K. pneumoniae CQ1947; colistin 0.5 μg/mL, strain F
  MIC of compound in combination with colistin: 0.8 µg/mL
K. pneumoniae CQ1947; [2]
  MICA(A + B) (MIC of compound in combination with colistin): 0.8 µg/mL
  MICB(A + B) (MIC of colistin in combination with compound): 0.5 µg/mL
K. pneumoniae CQ1947; compound + colistin
  Interpretation (of FICI): Indifferent (1.0 to 4.0 were indifferent)
K. pneumoniae CQ1947; [3]
  FICI: 1.004
HEK-293T cells; Homo sapiens, HEK-293T, Colistin 0.25 μg/mL
  IC50: 80.7 ± 6.08 µM
HEK-293T cells; Homo sapiens, HEK-293T, Colistin 0.5 μg/mL
  IC50: 84.1 ± 2.87 µM
HEK-293T cells; Homo sapiens, HEK-293T, No polymyxin
  IC50: 84.2 ± 2.59 µM
HEK-293T cells; Homo sapiens, HEK-293T, PMB 0.25 μg/mL
  IC50: 84.5 ± 1.52 µM
HEK-293T cells; Homo sapiens, HEK-293T, PMB 0.5 μg/mL
  IC50: 82 ± 2.9 µM
HEK-293T cells; Homo sapiens, HEK-293T, tested alone (no polymyxin adjuvant)
  IC50: 26.6 µg/mL
HEK-293T cells; No polymyxin
  IC50: 84.2 µM
Caco-2 cells; Colistin 0.125 μg/mL
  IC50: 55.7 ± 0.52 µM
Caco-2 cells; Colistin 0.25 μg/mL
  IC50: 58.09 ± 0.33 µM
Caco-2 cells; Colistin 0.5 μg/mL
  IC50: 53.4 ± 5.35 µM
Caco-2 cells; No polymyxin
  IC50: 54.8 ± 0.61 µM
Caco-2 cells; PMB 0.25 μg/mL
  IC50: 58.8 ± 2.66 µM
Caco-2 cells; PMB 0.5 μg/mL
  IC50: 56.4 ± 3.9 µM
Caco-2 cells; tested alone (no polymyxin adjuvant)
  IC50: 17.4 µg/mL
E. cloacae CQ1941; Cpd conc. 0.4 μg/mL, strain D
  MIC of colistin in combination with the compound: 0.5 µg/mL
E. cloacae CQ1941; Cpd conc. 0.8 μg/mL, strain D
  MIC of colistin in combination with the compound: 0.5 µg/mL
E. cloacae CQ1941; Cpd conc. 3.125 μg/mL, strain D
  MIC of colistin in combination with the compound: 0.25 µg/mL
E. cloacae CQ1941; Cpd conc. 6.25 μg/mL, strain D
  MIC of colistin in combination with the compound: 0.25 µg/mL
E. cloacae CQ1941; Cpd conc. 12.5 μg/mL, strain D
  MIC of colistin in combination with the compound: 0.125 µg/mL
E. cloacae CQ1941; Cpd conc. […], strain D
  MIC of colistin in combination with the compound: 0.25 µg/mL
E. cloacae CQ1941; agent alone, no adjuvant (polymyxin conc. 0), strain D, read-out: MIC
  MIC: > 100 µg/mL
E. cloacae CQ1941; [1]
  MIC: > 100 µg/mL
E. cloacae CQ1941; PMB 0.25 μg/mL, strain D
  MIC of compound in combination with PMB: 12.5 µg/mL
E. cloacae CQ1941; PMB 0.5 μg/mL, strain D
  MIC of compound in combination with PMB: ≤ 0.1 µg/mL
E. cloacae CQ1941; colistin 0.06 μg/mL, strain D
  MIC of compound in combination with colistin: > 100 µg/mL
E. cloacae CQ1941; colistin 0.125 μg/mL, strain D
  MBC of compound in combination with colistin: 25 µg/mL
  MIC of compound in combination with colistin: 12.5 µg/mL
E. cloacae CQ1941; colistin 0.25 μg/mL, strain D
  MIC of compound in combination with colistin: 1.6 µg/mL
E. cloacae CQ1941; colistin 0.5 μg/mL, strain D
  MIC of compound in combination with colistin: ≤ 0.1 µg/mL
E. cloacae CQ1941; [2]
  MICA(A + B) (MIC of compound in combination with colistin): 12.5 µg/mL
  MICB(A + B) (MIC of colistin in combination with compound): 0.125 µg/mL
E. cloacae CQ1941; [3]
  FICI: 0.31
P. aeruginosa CQ4924; Cpd conc. 0.4 μg/mL, strain H
  MIC of colistin in combination with the compound: > 0.5 µg/mL
P. aeruginosa CQ4924; Cpd conc. 0.8 μg/mL, strain H
  MIC of colistin in combination with the compound: > 0.5 µg/mL
P. aeruginosa CQ4924; Cpd conc. 3.125 μg/mL, strain H
  MIC of colistin in combination with the compound: > 0.5 µg/mL
P. aeruginosa CQ4924; Cpd conc. 6.25 μg/mL, strain H
  MIC of colistin in combination with the compound: 0.5 µg/mL
P. aeruginosa CQ4924; Cpd conc. 12.5 μg/mL, strain H
  MIC of colistin in combination with the compound: 0.5 µg/mL
P. aeruginosa CQ4924; Cpd conc. […], strain H
  MIC of colistin in combination with the compound: > 0.5 µg/mL
P. aeruginosa CQ4924; PMB 0.25 μg/mL, strain H
  MIC of compound in combination with PMB: > 100 µg/mL
P. aeruginosa CQ4924; agent alone, no adjuvant (polymyxin conc. 0), strain H, read-out: MIC
  MIC: > 100 µg/mL
P. aeruginosa CQ4924; [1]
  MIC: > 100 µg/mL
P. aeruginosa CQ4924; colistin 0.06 μg/mL, strain H
  MIC of compound in combination with colistin: > 100 µg/mL
P. aeruginosa CQ4924; colistin 0.125 μg/mL, strain H
  MIC of compound in combination with colistin: > 100 µg/mL
P. aeruginosa CQ4924; colistin 0.25 μg/mL, strain H
  MIC of compound in combination with colistin: > 100 µg/mL
P. aeruginosa CQ4924; colistin 0.5 μg/mL, strain H
  MIC of compound in combination with colistin: 6.3 µg/mL
P. aeruginosa CQ4924; [2]
  MICA(A + B) (MIC of compound in combination with colistin): 6.25 µg/mL
  MICB(A + B) (MIC of colistin in combination with compound): 0.5 µg/mL
P. aeruginosa CQ4924; compound + colistin
  Interpretation (of FICI): Additive (from 0.5 to 1.0 were additive)
P. aeruginosa CQ4924; [3]
  FICI: 0.53
K. pneumoniae CQ4921; Cpd conc. 0.4 μg/mL, strain C
  MIC of colistin in combination with the compound: 0.5 µg/mL
K. pneumoniae CQ4921; Cpd conc. 0.8 μg/mL, strain C
  MIC of colistin in combination with the compound: 0.5 µg/mL
K. pneumoniae CQ4921; Cpd conc. 3.125 μg/mL, strain C
  MIC of colistin in combination with the compound: 0.125 µg/mL
K. pneumoniae CQ4921; Cpd conc. 6.25 μg/mL, strain C
  MIC of colistin in combination with the compound: 0.125 µg/mL
K. pneumoniae CQ4921; Cpd conc. 12.5 μg/mL, strain C
  MIC of colistin in combination with the compound: 0.125 µg/mL
K. pneumoniae CQ4921; Cpd conc. […], strain C
  MIC of colistin in combination with the compound: 0.5 µg/mL
K. pneumoniae CQ4921; agent alone, no adjuvant (polymyxin conc. 0), strain C, read-out: MIC
  MIC: > 100 µg/mL
K. pneumoniae CQ4921; [1]
  MIC: > 100 µg/mL
K. pneumoniae CQ4921; PMB 0.5 μg/mL, strain C
  MIC of compound in combination with PMB: ≤ 0.1 µg/mL
K. pneumoniae CQ4921; colistin 0.06 μg/mL, strain C
  MIC of compound in combination with colistin: > 100 µg/mL
K. pneumoniae CQ4921; colistin 0.125 μg/mL, strain C
  MBC of compound in combination with colistin: 6.3 µg/mL
  MIC of compound in combination with colistin: 3.1 µg/mL
K. pneumoniae CQ4921; colistin 0.25 μg/mL, strain C
  MIC of compound in combination with colistin: 3.1 µg/mL
K. pneumoniae CQ4921; colistin 0.5 μg/mL, strain C
  MIC of compound in combination with colistin: ≤ 0.1 µg/mL
K. pneumoniae CQ4921; [2]
  MICA(A + B) (MIC of compound in combination with colistin): 3.125 µg/mL
  MICB(A + B) (MIC of colistin in combination with compound): 0.125 µg/mL
K. pneumoniae CQ4921; compound + colistin
  Interpretation (of FICI): Synergy (Values ≤ 0.5 were considered synergistic)
K. pneumoniae CQ4921; [3]
  FICI: 0.27

— PMC10817917, “Alkyl deoxyglycoside-polymyxin combinations against critical priority carbapenem-resistant gram-negative bacteria” (Scientific Reports, 2024)
